One compound from patent publication US10537650B2, “Molecular probes for multimodality imaging and tracking of stem cells” (University of Massachusetts, priority 2012, dated 2020) can be followed below.

What all share (type): in vivo, mouse
The nature of data set [1]: SPECT/CT, whole body count and optical imaging of ^111In-MTTI-157 labeled BL/6 mES cells in NU/NU mice. As to the method: BL/6 wild type mouse embryonic stem cells (mES) were labeled with ^111In-MTTI-157 at the concentration of 12 μM and about 250 μCi/ml according to the method described before. The labeled cells (5 in 0.1 ml PBS (5×10^6 per mouse) were injected into NU/NU mice by tail vein or subcutaneously on the left shoulder. SPECT/CT imaging was done at 30 min, 21 h and day 4 after injection subcutaneously, and at 1 h, 22 h and day 4 when injected by tail vein. Optical imaging was performed through day 11 for the subcutaneous delivery of cells. The whole body radioactivity was measured through day 7 by placing the animal in a dose calibrator.
The lungs, liver, and spleen were removed from the mouse injected by tail vein when sacrificed on day 19, and the teratoma was removed from mouse injected subcutaneously on the left shoulder when sacrificed on day 15. Excised organs and teratoma were imaged on the Li-Cor Biosciences Pearl Imager, and then set in OCT for frozen sections. The frozen sections were stained with the general membrane fluorescent stain D275 (Invitrogen, Em: 484 nm, Ex: 501 nm) and detected on an Olympus IX 70 Inverted Light Microscope (Olympus America, Inc., NY) using a FITC filter for D275 and a Cy5 filter for MTTI-157. D275 is a cell membrane stain and was used here to stain the field of view. The frozen sections were also stained with hematoxylin-eosin (H&E) for standard microscopy.

Data set [2] can be described thus: SPECT/CT, whole body count and optical imaging of ^111In-MTTI-157 labeled TC1 mES cells in NU/NU mice. The settings on record: for distribution of radioactivity (SPECT/CT): NU/NU mice. As to the method:
All animal experiments were approved by the Institutional Animal Care and Use Committee of the university. Male NU/NU mice from Charles River Laboratories International, Inc. (Wilmington, Mass.), about 8 week-old, were used here, and fed a white chow (AIN-93G Purified Diet, Harlan, Madison, Wis.) and water, and housed under standard conditions. TC1 wild type mES cells were labeled with ^111In-MTTI-157 at the dye concentration of 20 μM with about 50 μCi/ml per labeling mix according to the method described before. Then about 4-5 μCi of ^111In-MTTI-157 labeled cells in 0.1 ml PBS (5×10^6 per mouse) was injected into NU/NU mice by tail vein or delivered subcutaneously on the left shoulder. The mice were followed by SPECT/CT imaging (NanoSPECT/CT, Bioscan, Inc., Washington, D.C.) with scans at 1 h and 19 h for injection subcutaneously, and at 30 min and 18 h for injection by tail vein.
The whole body radioactivity was measured through day 9 after injection by placing the mouse in a dose calibrator (Capintec).
(§1) The SPECT image parameters were 1.0 mm/pixel, 256×256 frame size and 60 sec per projection with 24 projections. Acquisition time was approximately 30 min. During imaging, the animal was anesthetized with 1-2% isoflurane in 1.5 liters/min oxygen. A CT scan was acquired prior to the SPECT scan and was performed at standard resolution, using a 45 kVp voltage and 500 milliseconds exposure time. The CT and SPECT reconstruction was performed using InVivoScope 1.43 software (Bioscan, Washington, D.C.).
Optical images (Pearl Imager, LiCor Biosciences, Lincoln, Nebr.) were acquired on day 0 and at intervals through day 28. After imaging, the lungs, liver, spleen and teratoma were removed, imaged and then imbedded in OCT in preparation for frozen section fluorescence microscopy. Slides were counter stained with the general membrane stain D275 (Invitrogen, Em: 484 nm, Ex: 501 nm). Slides were viewed in an Olympus IX 70 Inverted Light Microscope (Olympus America, Inc., NY) using filters for FITC (for D275) and Cy5 (for MTTI-157). […]

The nature of data set [3]: SPECT/CT, whole body activity and optical imaging of ^111In-MTTI-157 labeled LS174T cells in SKH-1 mice. As to the method: ^111In-MTTI-157 labeled LS174T cells were administered to mice to follow their fate and that of the labels they carried. All animal experiments were approved by the Institutional Animal Care and Use Committee of the university. Male SKH-1 mice about 8 week-old (Charles River Laboratories, Inc., Wilmington, Mass.) were housed under standard conditions and fed white chow (AIN-93G Purified Diet, Harlan, Madison, Wis.). LS174T cells were prepared labeled with ^111In-MTTI-157 as above, and about 5×10^6 cells with 10-12 μCi was injected by tail vein per mouse.
as §1, with “The mice were followed by SPECT/CT imaging (NanoSPECT/CT, Bioscan, Inc., Washington, D.C.) with scans at 30 min, 1 h, 24 h, 72 h, 120 h and 168 h following injection. The SPECT” for “The SPECT”, “in 1.5 L/min oxygen. A” for “in 1.5 liters/min oxygen. A”
Optical images (Pearl Imager, LiCor Biosciences, Lincoln, Nebr.) were acquired on day 0 and at intervals through day 28. To facilitate detection of signal at depth, such as in the lungs, some animals were killed, the chest and abdomen opened to expose internal organs, and then imaged. Untreated mice served as control. After imaging, the lungs, liver and spleen were removed, imaged and then imbedded in OCT in preparation for frozen section fluorescence microscopy. Slides were counter stained with the general membrane stain D275 (Invitrogen). Slides were viewed in an Olympus IX 70 Inverted Light Microscope (Olympus America, Inc., NY) using filters for FITC (for D275) and Cy5 (for MTTI-157).

`CCCCCCCCCCCCCCCCCCCCCCN1C(=CC=CC=CC2=[N+](CCCCCCCCCCCCCCCCCCCCCC)c3ccc(CNC(=O)CN4CCN(CC(=O)[O-])CCN(CC(=O)[O-])CCN(CC(=O)[O-])CC4)cc3C2(C)C)C(C)(C)c2ccccc21.[111In+3].[I-]` [^111In-MTTI-157]: the “distribution of radioactivity (SPECT/CT)” value in data set [1] (labeled BL/6 mES cells by tail vein, NU/NU mice) is “accumulated in the lungs by 1 h following injection which then distributed to the liver and spleen by 22 h”; in data set [1] (labeled BL/6 mES cells subcutaneously on left shoulder, through day 4), “retained in the shoulder without distribution to other tissue”; in data set [2] (labeled TC1 mES cells injected by tail vein) it was “accumulated in the lungs at 1 h after injection and then distributed to liver and spleen by 19 h”; in data set [2] (labeled TC1 mES cells injected subcutaneously on the left shoulder), “retained in the shoulder and did not distribution to other tissue through 18 h”; in data set [3] (labeled LS174T cells by tail vein, SKH-1 mice, earliest scan 30 min and 1 h, then within a day), “restricted to the lungs and then seen to redistribute within a day to the liver and spleen”. Moreover, the whole body radioactivity result in data set [1] (labeled BL/6 mES cells, measured through day 7 in dose calibrator) is “unchanged from 2 h to 21 h after injection, but then decreases slightly at 91 h and remain at this level through 165 h”. For the same compound, the “whole body radioactivity corrected for decay” value in data set [2] (tail vein and subcutaneous injection of labeled TC1 mES cells, dose calibrator) is “retained in the body through day 9”. In data set [3] (SKH-1 mice, labeled LS174T cells by tail vein), the “whole body ^111In retention (decay corrected)” value was “retention out thru Day 14”. For the same compound, the “loss of whole body activity (half-life corrected)” value in data set [3] (from day 0 to day 10, dose calibrator, SKH-1 mice) is given as “about 23%”. In addition, in data set [3] (monitoring of cells out through 28 days in vivo), the “label stability in vivo” value was “no evidence of label instability”.
